We go through 1 molecule from paper PMC11084212, “Nontraditional Roles of Magnesium Ions in Modulating Sav2152: Insight from a Haloacid Dehalogenase-like Superfamily Phosphatase from Staphylococcus aureus” (International Journal of Molecular Sciences, 2024).

Each structure is given as a SMILES string.

This test addresses T1, Sav2152 (Staphylococcus aureus, UniProt A0A0H3JWK0).
T1 construct: monomer; C-terminus (res. 234-285) disordered in crystal
Nature of the test: EnzChek phosphatase assay, DiFMU release. In kind it is biochemical. As to conditions: 100 uM DiFMUP, 10 uM protein, 1 mM Mg2+, 100 mM NaCl, 25 mM Tris-HCl pH 7.0.

T1 sequence (A0A0H3JWK0 entry or part of it): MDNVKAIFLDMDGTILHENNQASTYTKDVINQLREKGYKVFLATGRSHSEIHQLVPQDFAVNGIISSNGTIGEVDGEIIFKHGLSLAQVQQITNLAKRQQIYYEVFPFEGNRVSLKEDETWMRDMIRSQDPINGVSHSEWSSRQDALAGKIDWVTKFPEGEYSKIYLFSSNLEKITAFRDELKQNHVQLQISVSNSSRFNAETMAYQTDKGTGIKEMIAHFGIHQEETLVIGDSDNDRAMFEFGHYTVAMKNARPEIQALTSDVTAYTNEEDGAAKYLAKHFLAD

For `Cc1cc(=O)oc2c(F)c(OP(=O)(O)O)c(F)cc12` [DiFMUP], the “EnzChek phosphatase assay, DiFMU release” value is “enzymatic activity of this protein was investigated using a simple phosphatase assay kit with DiFMUP”.
